Measurements as given in publication PMC10380083, “Synthesis of Prostate-Specific Membrane Antigen-Targeted Bimodal Conjugates of Cytotoxic Agents and Antiandrogens and Their Comparative Assessment with Monoconjugates” (International Journal of Molecular Sciences, 2023).
*1 amine or outer side, *2 acyl side, *3 side chain or, on linkers, in order; H or OH if unused. Where a SMILES comes first, the peptide text is derived from it. [ ]: non-standard residue; d: D form. The star is where a group is joined. GluureaLys(ε-3-ClBenzyl) = O=C(O)CC[C@H](NC(=O)N[C@@H](CCCCN(Cc1cccc(Cl)c1)*)C(=O)O)C(=O)O; Dolaproine = CO[C@@H]([C@@H]1CCCN1)[C@@H](C)C(=O)O; Dil = CC[C@H](C)[C@H](NC)[C@@H](CC(=O)O)OC; X2 = O=C(CCCc1cn(CCCN[*:1])nn1)[*:2]; PABC = O=C(OCc1ccc(N[*:1])cc1)[*:2]; X1 = C[C@@H](N*)[C@@H](O)c1ccccc1; Cit = NC(=O)NCCC[C@H](N)C(=O)O; Suc = O=C(CCC(=O)[*:2])[*:1]; NMeV = CN[C@H](C(=O)O)C(C)C; Ahx = NCCCCCC(=O)O

Tests used:
LNCaP cells = test: In vitro cytotoxicity, MTS assay, LNCaP; format: cell-based; details: 72 h, high PSMA expression, range 0.5 to 800 nM, triplicates
Procedure: (§1) The resulting bimodal conjugates were tested in vitro on three different PCa cell lines. We used LNCaP cells with high PSMA expression, 22Rv1 cells with moderate PSMA expression and PC-3 cells with extremely low PSMA expression. Different levels of PSMA expression in 22Rv1 and LNCaP cell lines allows evaluation of the effect of the level of expression on the toxicity of the target drugs. PSMA-negative cell line PC-3 allows a qualitative assessment of non-specific toxicity of the obtained compounds.
(§2) The cytotoxicity of the investigated substances was tested using the MTS assay with some modifications. Cells were seeded in the 96-well plates (Corning, New York, NY, USA) at concentration of 7000 cells per well for PC-3 culture, 12,000 cells per well for LNCaP cells and 20,000 cells per well for 22Rv1 line. The cells were counted using the automatic cell counter EVE. All cell lines were purchased from the American Type Culture Collection (ATCC, Manassas, VA, USA). After 1 day, serial dilutions of tested substances were added to the cells. Cell culture medium with addition of DMSO in appropriate concentrations was used as a negative control. DMSO (30%) was added in culture medium as a positive control. Cells were then incubated during 72 h at 37 °C and 5% CO2. Later, the culture medium from each well was removed and 20 μL of MTS reagent (CellTiter 96 AQueous Non-Radioactive Cell Proliferation Assay, Promega) were added to each well with 100 μL of new culture medium. After 4 h incubation at 37 °C in darkness, the absorbance of the solution was measured at 490 nm wavelength using Thermo Scientific Multiskan GO spectrometer. Cell viability was calculated as a percentage compared to control cells. The absorbance of MTS reagent in culture medium without cells was taken as zero. […] Experiments were performed in triplicates. Data were analyzed using Prism 9—GraphPad version 9.2.0 software. p values < 0.05 were considered significant.

22Rv1 cells = test: In vitro cytotoxicity, MTS assay, 22Rv1; format: cell-based, human; details: 72 h, moderate PSMA expression, range 0.5 to 800 nM, triplicates
Procedure: as §1, §2

PC-3 cells = test: In vitro cytotoxicity, MTS assay, PC-3; format: cell-based, human; details: 72 h, extremely low PSMA expression, range 0.5 to 800 nM, triplicates
Procedure: as §1, §2

| Structure (SMILES) | CC50, LNCaP (LNCaP cells) [nM] | CC50, 22Rv1 (22Rv1 cells) [nM] | CC50, PC-3 (PC-3 cells) [nM] |
| --- | --- | --- | --- |
| CC[C@H](C)[C@@H]([C@@H](CC(=O)N1CCC[C@H]1[C@H](OC)[C@@H](C)C(=O)N[C@H](C)[C@@H](O)c1ccccc1)OC)N(C)C(=O)[C@@H](NC(=O)[C@H](C(C)C)N(C)C(=O)OCc1ccc(NC(=O)[C@H](CCCNC(N)=O)NC(=O)[C@@H](NC(=O)CCCc2cn(CCCNC(=O)[C@H](Cc3ccc(O)cc3)NC(=O)[C@H](Cc3ccccc3)NC(=O)CCC(=O)NCCCCCC(=O)N(CCCC[C@H](NC(=O)N[C@@H](CCC(=O)O)C(=O)O)C(=O)O)Cc3cccc(Cl)c3)nn2)C(C)C)cc1)C(C)C [I, reference compound] ({GluureaLys(ε-3-ClBenzyl)-Ahx-Suc}-FY[X2]V[Cit][PABC][NMeV]V[Dil][Dolaproine]-X1) | 77.7 ± 1.3 | 78.5 ± 0.8 | >800 |
| CC[C@H](C)[C@@H]([C@@H](CC(=O)N1CCC[C@H]1[C@H](OC)[C@@H](C)C(=O)N[C@H](C)[C@@H](O)c1ccccc1)OC)N(C)C(=O)[C@@H](NC(=O)[C@@H](NC)C(C)C)C(C)C [MMAE, Monomethyl Auristatin E, reference compound] (H-[NMeV]V[Dil][Dolaproine]-X1) | 0.69 ± 0.1 | 0.42 ± 0.2 | >800 |
